According to patent US20250059520A1, “SGK1 INHIBITORY COMPOSITIONS AND METHODS” (Arizona Board of Regents on Behalf of the University of …, priority 2021, published 2025):
Ends that are not written are not given here.

Key:
[1] = tested on: isolated adult mouse ventricular myocytes (AMVMs); assay: Uptake, hypertrophic growth and ANP mRNA in AMVMs treated ± PE for 24 h; format: cell-based; settings: AMVMs ± PE 24 h, several peptide doses
Experimental: FIGS. 12A to 12E show TAT-SGK1-(Pep) Stops Growth of Myocytes.
(§1) TAT-SGK1-(Pep) inhibits myocyte growth and fibroblast activation: Next, a SGK1-(Pep) peptide was designed and synthesized with an N-terminal TAT sequence to facilitate its direct delivery to cultured cells, and potentially to mice. To test its effectiveness, isolated adult mouse ventricular myocytes (AMVMs) were treated with either vehicle or a FITC-labeled form of the peptide, then imaged to show uptake (FIG. 12A). […] Thus, the TAT-SGK1-(Pep) affects AMVM growth as anticipated. […] Finally, since TGFβ-stimulated SGK1 has been implicated in fibrosis (Artunc F and Lang F. Nephron Physiol. 2014 128:35-9), a major maladaptive aspect of pressure overload cardiac pathology, the effects of the TAT-SGK1-(Pep) on TGFβ-mediated induction of two markers of fibrosis, α-smooth muscle actin (α-SMA) and periostin, was examined in adult mouse ventricular fibroblasts (AMVF). […] These findings underscore the SGK1-specificity of the peptide, as well as the possibility that some of the adaptive effects of the peptide could include dampening inflammasome activation and decreasing fibrosis.

[2] = tested on: TAC-induced heart failure with reduced ejection fraction; assay: Heart failure induced by transaortic constriction (TAC) in mice, echocardiography; format: in vivo, mouse
From the text: Animals were randomly assigned to cohorts and a five-digit identifier number.
FIGS. 18A to 18D show LV mass (FIG. 18A), ejection fraction (FIG. 18B), cardiac stiffening (E/e′) (FIG. 18C), and A wave (FIG. 18D) in mice treated with control peptide, SGK1 peptide, or delayed treatment of SGK1 peptide. The mice were 4-weeks into a 6-week heart failure paradigm induced by transaortic constriction (TAC), a gold standard preclinical model of heart failure with reduced ejection fraction. […] Consistent pressure gradients to confirm standardized severity of the TAC procedure across cohorts is performed 1-week post-TAC via carotid flow Doppler ratios of the inominate to left common carotids.

[3] = tested on: adult mouse ventricular fibroblasts (AMVF); assay: TGFβ-mediated induction of fibrosis and inflammasome marker mRNAs in AMVF (qRT-PCR); format: cell-based; settings: 48 h
Experimental: FIGS. 13A to 13C show effects of TAT-SGK1-(Pep) in AMVFs: TAT-SGK1-(Pep) [P] added to AMVFs at the conc shown±TGFβ. 48 h later cultures analyzed for α-SMA (FIG. 13A), periostin (FIG. 13B), IL1b (FIG. 13C) mRNAs shown by qRT-PCR. n=3 cultures/treatment*$ p<0.05 different from all other values (ANOVA).
as §1

endogenous SGK1 [4] = assay: Rate of endogenous SGK1 degradation in AMVM; format: cell-based, mouse
endogenous SGK1 [5] = assay: Rate of endogenous SGK1 degradation in NRVM; format: cell-based, rat; settings: degradation dependent on Hrd1
GILZ = target: T1, GILZ (Rattus norvegicus, UniProt Q9EQZ1); assay: FLAG immunoprecipitation of GILZ from NRVM infected with AdV-FLAG-SGK1(122-157); format: binding
T1 construct: FLAG IP efficiently pulled down the FLAG-SGK peptide (5, 6) as well as GILZ (7, 8); endogenous in cells; host or cells: NRVM (neonatal rat ventricular myocytes) infected with AdV-Con or AdV-FLAG-SGK1(122-157)
T1 sequence (Q9EQZ1 1-134): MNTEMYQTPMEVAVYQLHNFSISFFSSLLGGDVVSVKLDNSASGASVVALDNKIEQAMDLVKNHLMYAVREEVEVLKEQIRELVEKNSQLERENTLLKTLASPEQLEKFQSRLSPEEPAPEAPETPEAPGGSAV
From the text: (§2) FIGS. 11A to 11C show SGK1(122-157) Interrupts SGK1/GILZ Interaction and Decreases Cardiac Myocyte Growth. FIG. 11A illustrates how a small SGK1-related peptide could disrupt SGK1-GILZ interaction, increase SGK1 degradation and reduce cardiac myocyte growth. […] NRVM were infected with AdV-Con or FLAG-SGK-(122-157). […] FLAG IP efficiently pulled down the FLAG-SGK peptide (5, 6) as well as GILZ (7, 8).
(§3) Thus, it is anticipated that AAV9-FLAG-SGK1-(Pep) can increase SGK1 degradation and, thus, blunt pressure overload-induced pathological cardiac hypertrophy and subsequent heart failure in mice, in vivo.

[6] = tested on: neonatal rat ventricular myocytes (NRVMs); assay: PE-mediated ANP expression, growth and SGK1 degradation in NRVM with ectopic expression of the SGK1 peptide; format: cell-based; settings: NRVM ± AdV-SGK1 peptide
From the text: as §2
SGK1 and GILZ were shown herein to be increased in pathological hypertrophic human and mouse hearts. In mice, SGK1 degradation was slowed during pressure overload. Cardiac-specific deletion of SGK1 in mice decreased pressure overload-induced hypertrophy, whereas overexpression of SGK1 increased it. Removing the SGK1 ER-targeting sequence, or overexpressing GILZ decreased SGK1 degradation in neonatal rat ventricular myocytes (NRVMs) and increased growth; GILZ knockdown decreased growth. A 35 amino acid region in SGK1 that interacts with GILZ was identified; ectopic expression of this peptide increased SGK1 degradation and decreased NRVM growth.
as §3

[7] = chronic administration, 4 weeks into 6-week TAC paradigm

Row | Sequence | ANP mRNA [1] | cardiac myocyte remodeling (hypertrophic growth, width to length ratio) [1] | TAC-induced left ventricular hypertrophy (LV Mass) [2, 7] | diastolic dysfunction and cardiac stiffening (E/e′) [2, 7] | early indicator of congestion (mitral atrial flow velocity, A wave) [2, 7] | systolic dysfunction (ejection fraction) [2, 7] | toxic effects [2, 7] | cardiac dysfunction and remodeling ([2]; delayed administration starting at 2-weeks post-TAC) | TGFβ-mediated induction of periostin mRNA [3] | TGFβ-mediated induction of α-smooth muscle actin (α-SMA) mRNA [3] | mRNA for IL1β, marker of inflammasome activation [3] | endogenous SGK1 degradation (endogenous SGK1 [4]) | endogenous SGK1 degradation (endogenous SGK1 [5]) | binding to GILZ in IP experiments (GILZ) | PE-mediated ANP expression (ANP mRNA) [6]
1 | GRKKRRQRRRPQVFYAVKVLQKKAILKKKEEKHIMSERNVLLKNVKHP [TAT-SGK1-(Pep)] | dose-dependent decrease | dose-dependent decrease | conferring protection | conferring protection | conferring protection | conferring protection | no signs of untoward toxic effects | shows signs of cardioprotection and reversal of early cardiac dysfunction and remodeling | effectively inhibited induction | effectively inhibited induction | inhibited | accelerate endogenous SGK1 degradation | accelerate endogenous SGK1 degradation |  | 
2 | VFYAVKVLQKKAILKKKEEKHIMSERNVLLKNVKHP (not fully specified) [SGK1-(Pep), FLAG-tagged amino acids 122-157 of SGK1, ectopically expressed from an adenovirus (AdV)] |  |  |  |  |  |  |  |  |  |  |  |  |  | could bind to GILZ | blunted PE-mediated ANP expression
